Source: patent US8735384B2, “Amino heteroaryl compounds as beta-secretase modulators and methods of use” (Amgen Inc., priority 2010, dated 2014)
Read-outs that look alike come from different tables or passages of the source.

Key:
BACE1 = BACE1 (Homo sapiens, UniProt P56817); test: In vitro enzymatic BACE FRET assay; format: biochemical; details: beta secretase enzyme 0.2 nM, FRET substrate 50 nM, pH 4.2; read-out: BACE1 FRET assay (IC50 class)
Procedure: In Vitro Enzymatic BACE FRET (Fluorescence Resonance Energy Transfer) Assay (Enzyme Assay Data in Table 1)
The assay buffer used in this screen is 0.05 M acetate, pH 4.2, 10% DMSO final, 100 uM genapol (which is a nonionic detergent, below its Critical Micelle Concentration). The beta secretase enzyme (0.2 nM) is pre-incubated for one hour with inhibitors, typically in about 1 uL of DMSO according to a serial dilution, are added thereto. The assay is effectively started by the addition of FRET substrate (50 nM) and the combination is incubated for one hour. The FRET assay is terminated with by addition of Tris buffer, which raises the pH to neutrality, and the fluorescence is determined. The FRET substrate is a peptide with commercially available fluorophore and quencher, on opposite sides of the BACE cleavage site. Proteolytic cleavage of the FRET substrate releases quenching of fluorescence (excitation […] and […]).
Of the compounds tested, the in-vitro BACE FRET enzyme data for each of Examples 1-220, where available at the time of filing this application, is provided in Table 1.

[1] = test system: Aβ40 in conditioned medium of cells stably expressing Amyloid Precursor Protein (APP); test: In vitro BACE cell-based assay (HEK cell assay), Aβ40 sandwich ELISA; details: inhibition of Aβ40, 24 h incubation, read-out: HEK cell assay (IC50 class)
Procedure: In Vitro BACE Cell-Based Assay:
The cell-based assay measures inhibition or reduction of Aβ40 in conditioned medium of test compound treated cells expressing amyloid precursor protein.
Cells stably expressing Amyloid Precursor Protein (APP) were plated at a density of 40K cells/well in 96 well plates (Costar). The cells were cultivated for 24 hours at 37° C. and 5% CO2 in DMEM supplemented with 10% FBS. The test compounds were then added to cells in 10-point dose response concentrations with the starting concentration being either 100 μM or 10 μM. The compounds were diluted from stock solutions in DMSO and the final DMSO concentration of the test compounds on cells was 0.1%. After 24 h of incubation with the test compounds the supernatant conditioned media was collected and the Aβ 40 levels were determined using a sandwich ELISA. The IC50 of the compound was calculated from the percent of control or percent inhibition of Aβ 40 as a function of the concentration of the test compound.
The sandwich ELISA to detect Aβ 40 was performed in 96 well microtiter plates, which were pre-treated with goat anti-rabbit IgG (Pierce). The capture and detecting antibody pair that were used to detect Aβ 40 from cell supernatants were affinity purified pAb40 (Biosource) and biotinylated 6E10 (Signet Labs Inc.), respectively. The optimal concentration for the pAb40 antibody was 3 μg/ml in Superblock/TBS (Pierce) that was supplemented with 0.05% Tween 20 (Sigma). Optimal concentration for the detection antibody 6E10-biotinylated was 0.5 μg/ml in Superblock/TBS (Pierce) that had been supplemented with 2% normal goat serum and 2% normal mouse serum.
Cellular supernatants were incubated with the capture antibody for 3 h at 4° C., followed by 3 wash steps in TBS-tween (0.05%). The detecting antibody incubation was for 2 h at 4° C., again followed by the wash steps as described previously. The final readout of the ELISA is Time-Resolved Fluorescence (counts per minute) using Delfia reagents Streptavidin-Europium and Enhancement solutions (Perkin Elmer) and the Victor 2 multilabel counter (Perkin Elmer).

Sequence of BACE1 (P56817 46-501, species assumed): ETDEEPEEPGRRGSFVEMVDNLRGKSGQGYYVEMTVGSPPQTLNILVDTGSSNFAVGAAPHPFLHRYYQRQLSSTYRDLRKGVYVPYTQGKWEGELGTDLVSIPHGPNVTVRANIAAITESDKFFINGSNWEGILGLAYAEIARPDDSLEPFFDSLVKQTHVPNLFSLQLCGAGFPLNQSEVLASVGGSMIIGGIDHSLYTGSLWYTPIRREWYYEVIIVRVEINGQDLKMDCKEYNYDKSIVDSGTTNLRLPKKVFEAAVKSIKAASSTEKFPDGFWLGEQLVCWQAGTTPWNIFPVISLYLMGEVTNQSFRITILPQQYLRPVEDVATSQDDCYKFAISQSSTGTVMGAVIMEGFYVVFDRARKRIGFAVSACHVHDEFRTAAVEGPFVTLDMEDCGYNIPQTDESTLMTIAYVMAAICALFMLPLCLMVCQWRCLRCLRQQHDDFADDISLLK

Molecule | IC50 (BACE1) | IC50 ([1]; Homo sapiens, HEK293, 24 h) | IC50 [1]
CCC1CCCN1C(=O)c1cccc(C)c1-c1ccc2nc(N)c(N3CCOCC3)cc2c1 (stereo not shown) [Example 65, (2-(2-amino-3-morpholinoquinolin-6-yl)-3-methylphenyl)(2-ethylpyrrolidin-1-yl)methanone] | < 0.1 µM | 0.501 to 1 µM | –
COC[C@H]1CCCN1C(=O)c1cccc(C)c1-c1ccc2nc(N)c(N3CCOCC3)cc2c1 [Example 70, (R)-(2-(2-amino-3-morpholinoquinolin-6-yl)-3-methylphenyl)(2-(methoxymethyl)pyrrolidin-1-yl)methanone] | 0.1 to 0.5 µM | 1.01 to 5 µM | –
Cc1cccc(C(=O)N(C)C(C)(C)C)c1-c1ccc2nc(N)c(N3CCOCC3)cc2c1 [Example 123, 2-(2-amino-3-morpholinoquinolin-6-yl)-N-tert-butyl-N,3-dimethylbenzamide] | < 0.1 µM | 0.501 to 1 µM | –
Cc1cccc(C(=O)N2C(C)C=CC2C)c1-c1ccc2nc(N)c(N3CCOCC3)cc2c1 (stereo not shown) [Example 125, (2-(2-amino-3-morpholinoquinolin-6-yl)-3-methylphenyl)(2,5-dimethyl-2,5-dihydro-1H-pyrrol-1-yl)methanone] | < 0.1 µM | 0.501 to 1 µM | –
Cc1cccc(C(=O)N(C)Cc2ccccc2)c1-c1ccc2nc(N)c(N3CCOCC3)cc2c1 [Example 136, 2-(2-amino-3-morpholinoquinolin-6-yl)-N-benzyl-N,3-dimethylbenzamide] | 0.1 to 0.5 µM | 1.01 to 5 µM | –
Cc1cccc(C(=O)Nc2ccccc2)c1-c1ccc2nc(N)c(N3CCOCC3)cc2c1 [Example 127, 2-(2-amino-3-morpholinoquinolin-6-yl)-3-methyl-N-phenylbenzamide] | 1.01 to 5 µM | > 5 µM | –
Nc1nc2ccc(-c3c(CC4OCCO4)cccc3C(=O)N3CCCC3)cc2cc1N1CCOCC1 [Example 192, (3-((1,3-dioxolan-2-yl)methyl)-2-(2-amino-3-morpholinoquinolin-6-yl)phenyl)(pyrrolidin-1-yl)methanone] | < 0.1 µM | 0.1 to 0.5 µM | –
Cc1cnc(-c2cccc(C)c2-c2ccc3nc(N)c(N4CCOCC4)cc3c2)o1 [Example 32, 6-(2-methyl-6-(5-methyloxazol-2-yl)phenyl)-3-morpholinoquinolin-2-amine] | 1.01 to 5 µM | > 5 µM | –
Cc1cccc(OCCOC(C)C)c1-c1ccc2nc(N)c(N3CCOCC3)cc2c1 [Example 170, 6-(2-(2-isopropoxyethoxy)-6-methylphenyl)-3-morpholinoquinolin-2-amine] | < 0.1 µM | 1.01 to 5 µM | –
COCCN(C)C(=O)c1cccc(C)c1-c1ccc2nc(N)c(N3CCOCC3)cc2c1 [Example 71, 2-(2-amino-3-morpholinoquinolin-6-yl)-N-(2-methoxyethyl)-N,3-dimethylbenzamide] | 0.1 to 0.5 µM | 1.01 to 5 µM | –
Cc1cccnc1C(N)c1cccc(C)c1-c1ccc2nc(N)c(N3CCOCC3)cc2c1 (stereo not shown) [Example 194, 6-(2-(amino(3-methylpyridin-2-yl)methyl)-6-methylphenyl)-3-morpholinoquinolin-2-amine] | 0.501 to 1 µM | 0.1 to 0.5 µM | –
COC1CCN(C(=O)c2cccc(C)c2-c2ccc3nc(N)c(N4CCOCC4)cc3c2)CC1 [Example 72, (2-(2-amino-3-morpholinoquinolin-6-yl)-3-methylphenyl)(4-methoxypiperidin-1-yl)methanone] | < 0.1 µM | 1.01 to 5 µM | –
Cc1cccc(C(=O)N2CCCC2)c1-c1ccc2nc(N)c(N3CCCCC3)cc2c1 [Example 61, (2-(2-amino-3-(piperidin-1-yl)quinolin-6-yl)-3-methylphenyl)(pyrrolidin-1-yl)methanone] | 0.501 to 1 µM | 1.01 to 5 µM | –
COCCC1CCN(C(=O)c2cccc(C)c2-c2ccc3nc(N)c(N4CCOCC4)cc3c2)CC1 [Example 75, (2-(2-amino-3-morpholinoquinolin-6-yl)-3-methylphenyl)(4-(2-methoxyethyl)piperidin-1-yl)methanone] | 0.1 to 0.5 µM | 1.01 to 5 µM | –
Cc1cccc(C(=O)N(C)CCC(C)C)c1-c1ccc2nc(N)c(N3CCOCC3)cc2c1 [Example 119, 2-(2-amino-3-morpholinoquinolin-6-yl)-N-isopentyl-N,3-dimethylbenzamide] | 0.1 to 0.5 µM | 1.01 to 5 µM | –
CCN(CC)C(=O)c1cccc(C)c1-c1ccc2nc(N)c(N3CCOCC3)cc2c1 [Example 102, 2-(2-amino-3-morpholinoquinolin-6-yl)-N,N-diethyl-3-methylbenzamide] | 0.1 to 0.5 µM | 1.01 to 5 µM | –
Nc1nc2ccc(-c3ccccc3CC3CCOCC3)cc2cc1N1CCOCC1 [Example 13, 3-morpholino-6-(2-((tetrahydro-2H-pyran-4-yl)methyl)phenyl)quinolin-2-amine] | 0.1 to 0.5 µM | 1.01 to 5 µM | –
Cc1cccc(C(=O)N2CCC[C@@H](C)C2)c1-c1ccc2nc(N)c(N3CCOCC3)cc2c1 [Example 77, (R)-(2-(2-amino-3-morpholinoquinolin-6-yl)-3-methylphenyl)(3-methylpiperidin-1-yl)methanone] | < 0.1 µM | 1.01 to 5 µM | –
Cc1cccc(C(=O)N2CCCCC2)c1-c1ccc2nc(N)c(N3CCOCC3)cc2c1 [Example 58, (2-(2-amino-3-morpholinoquinolin-6-yl)-3-methylphenyl)(piperidin-1-yl)methanone] | < 0.1 µM | 0.501 to 1 µM | –
COc1cccc(Cc2cccc(C)c2-c2ccc3nc(N)c(N4CCOCC4)cc3c2)c1 [Example 203, 6-(2-(3-methoxybenzyl)-6-methylphenyl)-3-morpholinoquinolin-2-amine] | < 0.1 µM | > 5 µM | –
Cc1cccc(C(=O)N2CCC(F)(F)C2)c1-c1ccc2nc(N)c(C3CCOCC3)cc2c1 [Example 211, (2-(2-amino-3-(tetrahydro-2H-pyran-4-yl)quinolin-6-yl)-3-methylphenyl)(3,3-difluoropyrrolidin-1-yl)methanone] | < 0.1 µM | 0.1 to 0.5 µM | –
Cc1cccc(C2=NCCc3ccccc32)c1-c1ccc2nc(N)c(N3CCOCC3)cc2c1 [Example 4, 6-(2-(3,4-dihydroisoquinolin-1-yl)-6-methylphenyl)-3-morpholinoquinolin-2-amine] | 0.1 to 0.5 µM | 0.501 to 1 µM | –
Cc1cccc(C(=O)N(C)C)c1-c1ccc2nc(N)c(N3CCOCC3)cc2c1 [Example 134, 2-(2-amino-3-morpholinoquinolin-6-yl)-N,N,3-trimethylbenzamide] | 0.1 to 0.5 µM | 1.01 to 5 µM | –
Cc1cccc(C(=O)c2ncccc2Cl)c1-c1ccc2nc(N)c(N3CCOCC3)cc2c1 [Example 159, (2-(2-amino-3-morpholinoquinolin-6-yl)-3-methylphenyl)(3-chloropyridin-2-yl)methanone] | < 0.1 µM | 0.501 to 1 µM | –
Cc1cccc(C(O)c2ccccc2)c1-c1ccc2nc(N)c(N3CCOCC3)cc2c1 (stereo not shown) [Example 199, (2-(2-amino-3-morpholinoquinolin-6-yl)-3-methylphenyl)(phenyl)methanol] | < 0.1 µM | 0.1 to 0.5 µM | –
Cc1cccc(C2NCCc3ccccc32)c1-c1ccc2nc(N)c(N3CCOCC3)cc2c1 (stereo not shown) [Example 10, 6-(2-methyl-6-(1,2,3,4-tetrahydroisoquinolin-1-yl)phenyl)-3-morpholinoquinolin-2-amine] | 1.01 to 5 µM | 0.1 to 0.5 µM | –
Cc1ccccc1-c1ccc2nc(N)c(N3CCOCC3)cc2c1 [Example 218, 3-morpholino-6-o-tolylquinolin-2-amine] | 0.501 to 1 µM | > 5 µM | –
COc1ccccc1C(N)c1cccc(C)c1-c1ccc2nc(N)c(N3CCOCC3)cc2c1 (stereo not shown) [Example 195, 6-(2-(amino(2-methoxyphenyl)methyl)-6-methylphenyl)-3-morpholinoquinolin-2-amine] | < 0.1 µM | < 0.1 µM | –
2-(2-amino-3-(2,6-dimethylmorpholino)quinolin-6-yl)-N-ethyl-3-methyl-N-propylbenzamide [Example 216] | < 0.1 µM | – | 1.01 to 5 µM
